Tested on: TLR4
Experiment: qPCR of LPS-mediated cytokine mRNA expression in THP-1 macrophages
Assay type: cell-based, human
Settings: control/decoy peptide (data not shown)
Description: SW480 (ATCC CCL-228) and Jurkat (ATCC Clone E6-1; TIB-152) cells were cultured in RPMI 1640 (Sigma-Aldrich, Schnelldorf, Germany) supplemented with 10% heat-inactivated FCS, penicillin/streptomycin (Life Technologies) and 20 mM L-Glutamine. THP-1 cells (ATCC TIB-202) were cultured in RPMI-1640 (high-glucose, ATCC) supplemented with 10% heat inactivated foetal calf serum (FCS), 100 nM penicillin/streptomycin and 5 μM β-mercaptoethanol (Sigma). THP-1 cells were differentiated with 60 ng/ml phorbol 12-myristate 13-acetate (PMA, Sigma) for 72 h, followed by 24 or 48 h in medium without PMA.
Total RNA was isolated from the cells using Qiazol reagent #79306 from QIAGEN, and chloroform extraction followed by purification on RNeasy Mini columns with DNAse digestion (Qiagen). cDNA was prepared using the Maxima First Strand cDNA Synthesis Kit for quantitative real-time polymerase chain reaction (RT-qPCR) (Thermo Fisher Scientific) according to the manufacturer's protocol. qPCR was performed using the PerfeCTa qPCR FastMix (Quanta Biosciences) in replicates and cycled in a StepOnePlus™ Real-Time PCR cycler. The following TaqMan® Gene Expression Assays (Applied Biosystems®) were used: IFNβ (Hs01077958_s1), TNF (Hs00174128_m1), TBP (Hs00427620_m1), CXCL10 (Hs01124251_g1), IL-6 (Hs00174131_m1) and IL-1β (Hs01555410_m1), for human cells; Ifnβ (Mm00439552_s1), Tnf (Mm00443258_m1), Tbp (Mm01277042_m1) and II-1β (Mm00434228_m1), for mouse cells. No RT controls were negative. The level of TBP mRNA was used for normalisation and results presented as relative expression compared to the control untreated sample. Relative expression was calculated using Pfaffl's mathematical model (Pfaffl, Nucleic Acids Research 29(9): e45, 2001). Results are presented as the mean and SD expression fold change for biological replicates relative to non-stimulated cells. Statistical significance was evaluated in GraphPad Prizm 5.03. Data distribution was assumed to be normal but this was not formally tested. The difference between the two groups was determined by two-tailed t test.

Substance | LPS- or E. coli particle-induced expression of IFNβ, CXCL10 and TNF
IATYASTALTGRRRRRRRRRRR (Ac-IATYASTALTGRRRRRRRRRRR-NH2) [Peptide P7C3-Arg11, control/decoy peptide] | no effect

Tested on: TLR4
Experiment: ELISA/Bioplex of LPS-mediated cytokine secretion by THP-1 cells
Assay type: cell-based, human
Settings: 15 μM, 30 min pre-treatment, LPS 100 ng/ml 5 h; relative to P7-Pen
Description: (A) Results of LDH assay and ELISAs analysing cytokine secretion after 5 h of stimulation with LPS (graphs show mean values for at least 3 biological replicates). […] In the tables average values are presented based on 3-5 biological replicates for each experiment. […]
TNF in supernatants was detected using a human TNF-alpha DuoSet ELISA (DY210) (R&D Systems); CXCL10 using a DuoSet ELISA (DY266) (R&D Systems); IL-1β using a BD OptEiA human IL-1β ELISA SetII (#557953, BD Biosciences): IFNβ using a VeriKine-HS™ Human Interferon-Beta Serum ELISA Kit (#41415) from PBL Assay Science. Some supernatants were also analysed by multiplex cytokine assay (Bio-Plex; Bio-Rad Laboratories Inc.) for IL-1β, IL-6, IL-8, CXCL10/IP-10. Results are presented as mean and SD for biological replicates for a representative donor (primary human macrophages), or at least three independent experiments for the model cell line THP-1. Statistical significance was evaluated in GraphPad Prizm 5.03. Data distribution was assumed to be normal but this was not formally tested. The difference between the two groups was determined by two-tailed t test.

Substance | inhibitory activity towards LPS-induced CXCL10, TNF and IL-1β secretion (ELISA)
ATVYASVTLTGRQIKIWFQNRRMKWKK (P7-A1-Pen) [Peptide P7-A1-Pen] | totally abrogated activity
Ac-ITVYASVTLDGRQIKIWFQNRRMKWKK-NH2 [Peptide P7-D10-Pen] | high levels of activity
Ac-ITVYASVTLGGRQIKIWFQNRRMKWKK-NH2 [Peptide P7-G10-Pen] | high levels of activity
ITLYASVTLTGRQIKIWFQNRRMKWKK (Ac-ITLYASVTLTGRQIKIWFQNRRMKWKK-NH2) [Peptide P7-L3-Pen] | only partially decreased
ITVYASVTLPAGRQIKIWFQNRRMKWKK (P10-A11-Pen) [P10-Ala11-Pen] | totally abrogated
ITVYASVTLPEGRQIKIWFQNRRMKWKK (Ac-ITVYASVTLPEGRQIKIWFQNRRMKWKK-NH2) [Peptide P10-Pen] | totally abrogated
ITVYASVTLTAGRQIKIWFQNRRMKWKK (P11-A11-Pen) [P11-Ala11-Pen] | totally abrogated
ITVYASVTLTEGRQIKIWFQNRRMKWKK (P11-Pen) [Peptide P11-Pen] | totally abrogated
NSITVYASVTLTGRQIKIWFQNRRMKWKK (P3sh2-Pen) [Peptide P3sh2-Pen] | did not cause loss of inhibitory activity
TNSITVYASVTLTGRQIKIWFQNRRMKWKK (P3sh1-Pen) [Peptide P3sh1-Pen] | did not cause loss of inhibitory activity

Tested on: TLR4
Experiment: Western blot of LPS signalling in THP-1 cells and primary human monocytes
Assay type: cell-based
Settings: data not shown
Description: Protein pellets were dissolved by heating protein pellets for 10 min at 95° C. in buffer containing 4 M urea, 1 SDS (Sigma) and NuPAGE® LDS Sample Buffer (4×) (Thermo Fisher Scientific). Otherwise, lysates were made using 1× RIPA lysis buffer (150 mM NaCl, 50 mM TrisHCl (pH 7.5), 1% Triton X100, 5 mM EDTA, protease inhibitors, phosphatase inhibitors). For Western blot analysis we used pre-cast protein gels NuPAGE™ Novex™ and iBlot Transfer Stacks iBlot Gel Transfer Device (Thermo Fisher Scientific). Proteins were transferred to the membrane by dry-blotting using iBlot® 2 NC Regular/Mini Stacks (Life Technologies) in the iBlot 2 Dry Blotting System (Life Technologies). After secondary antibody incubation, membranes were washed and incubated with HRP substrate solution (SuperSignal™ West Femto Maximum Sensitivity Substrate (Thermo Fisher Scientific)). Images were taken using Odyssey® Fc (LI-CORE). Quantification graphs were generated by the analysis of signal intensities for protein bands (protein of interest and endogenous loading control—β-tubulin from the same membrane) using Odyssey software (LI-CORE). Data were normalised to the expression levels of β-tubulin and presented as a relative fold change to the control sample.
Further, we tested the effect of P7-Pen on phosphorylation of p38 MAPK, IκBα degradation and modification of IRAK1 in human macrophages (THP-1 cells) and primary human monocytes. P7-Pen inhibited LPS-mediated phosphorylation of p38 MAPK (FIG. 24A) and inhibited IRAK1 ubiquitination/phosphorylation (visualised as band shift to higher molecular weight) in primary monocytes (FIG. 24B).

Substance | pattern of inhibition of p38 MAPK phosphorylation and IRAK1 modification as seen with P7-Pen
IATYASTALTGRQIKIWFQNRRMKWKK (Ac-IATYASTALTGRQIKIWFQNRRMKWKK-NH2) [Peptide P7C3-Pen, control peptide] | not
ITVYASVTATGRQIKIWFQNRRMKWKK (P7-A9-Pen) [Peptide P7-A9-Pen] | inactive

Tested on: ANBL-6 multiple myeloma cells
Experiment: CellTiter-Glo cell viability assay, ANBL-6
Assay type: cell-based
Settings: 15 μM
Description: Minor effects on the proliferation of the IH-1 and RPMI 8226 cell lines are seen. Cells were seeded at the level shown (left-hand bar of each set) then incubated in medium containing water, 10 μM penetratin or 10 μM P7-A4-Pen for 48 hr (except for INA-6 cells, which were incubated with 12.5 μM penetratin or 12.5 μM P7-A4-Pen). The number of viable cells was detected based on quantitation of ATP by luminescent signal in correlation to a standard curve prepared for each cell line. Results are based on 3-5 biological replicates for each condition, error bars show standard deviation of mean.
Cells were seeded and then incubated in growth medium alone or supplemented with water, DMSO, 15 μM penetratin or 15 μM investigational peptide. The growth medium only and H2O—, DMSO- and penetratin-supplemented cultures constituted controls.
The solid horizontal lines show the amount of cells originally seeded. In (A) ANBL-6 cells were seeded at a level of 10,000 cells/well, then incubated in medium supplemented with water, the control peptide C3A-Pen, P7-Pen, P7-A4-Pen, P7-N4-Pen or P7-K2-Pen for 48 hours. The peptides were included at concentrations of 5, 10, 12.5, 15, 20 or 30 μM. Cells were counted at 48 hours. In (B), ANBL-6 cells were seeded at a level of 5000 cells/well, then incubated in medium supplemented with water, P6-Pen, P-P6-Pen, P7-D4-Pen or P7-A4-Pen for 48 hours. Peptides were included at concentrations of 5, 10 or 20 μM. Cells were counted at 48 hours. […] Results are based on 3 biological replicates, error bars show standard deviation of mean.
Multiple myeloma cells JJN-3 (DSMZ (Germany) no. ACC 541), ANBL-6 (Cellosaurus accession number CVCL_5425, obtained from Dr Diane Jelinek, Mayo Clinic, Rochester, Minn.), INA-6 (Cellosaurus accession number CVCL_5209, obtained from Dr M. Gramatzki, University of Erlangen-Nurnberg, Erlangen, Germany), RPMI-8226 (ATCC CCL-155), and IH-1 (Cellosaurus accession number CVCL_WZ44, established from the pleural effusion of a myeloma patient by Myeloma research group, IKOM, NTNU, Trondheim, Norway) were grown in RPMI-1640 (Sigma-Aldrich Norway, Oslo, Norway) supplemented with 100 nM penicillin/streptomycin and 10% FCS, and for ANBL-6, IH-1 and INA-6 cells 2 ng/ml recombinant IL-6 (Gibco, Thermo Fisher Scientific, Waltham, Mass., USA). Murine multiple myeloma Vk*MYC cells were obtained from M.D. Leif Bergsagel (Mayo Clinic, Richester, Minn., USA) and cultured in RPMI-1640 supplemented with 2% human serum (B^+, The blood bank, St Olav's Hospital, Trondheim, Norway), 100 nM penicillin/streptomycin, L-Glutamine (2 mM) and recombinant IL-6 (1 ng/ml). HEK293T (ATCC CRL-3216) were cultured in DMEM with 10% FCS. THP-1 TRAM knockout (KO) and TLR4 KO cell lines, and matching lentivirally transduced control cell lines, were differentiated in the same way as wild type (WT) THP-1. TRAM KO THP-1 cell line is described in Yurchenko et al. (supra).
To evaluate the potential impact of the P7 peptide on proliferation of tumour cells of lymphoid origin, we performed a CellTiter-Glo Luminescent Cell Viability Assay to address proliferation of several multiple myeloma (MM) cell lines. For the assay, cells were incubated for 48 h in respective media containing either solvent (water), 10 μM control peptide (Pen) or the SLAMF1-derived peptide P7-A4-Pen for 48 h (FIG. 32) (with the exception of the INA-6 cells which were incubated with 12.5 μM control peptide or P7-A4-Pen). […] This effect could be mediated by P7-A4-Pen-induced inhibition of signalling pathways that are crucial for driving proliferation and/or survival of MM tumour cells.

Substance | effect on proliferation of ANBL-6 cells
Ac-IKVYASVTLTGRQIKIWFQNRRMKWKK-NH2 [Peptide P7-K2-Pen] | anti-proliferative effect
Ac-ITVDASVTLTGRQIKIWFQNRRMKWKK-NH2 [Peptide P7-D4-Pen] | anti-proliferative effect
ITVSASVTLTGRQIKIWFQNRRMKWKK (Ac-ITVSASVTLTGRQIKIWFQNRRMKWKK-NH2) [Peptide P7-S4-Pen] | anti-proliferative effect

Same assay, conditions: 5, 10, 12.5, 15, 20 and 30 μM or 5, 10 and 20 μM, 48 h

Substance | anti-proliferative activity over a concentration series
Ac-IKVYASVTLTGRQIKIWFQNRRMKWKK-NH2 [Peptide P7-K2-Pen] | clear concentration-dependent effect
Ac-ITVDASVTLTGRQIKIWFQNRRMKWKK-NH2 [Peptide P7-D4-Pen] | clear concentration-dependent effect
IATYASVTLTGRQIKIWFQNRRMKWKK (Ac-IATYASVTLTGRQIKIWFQNRRMKWKK-NH2) [Peptide P7C3A-Pen, control peptide] | essentially no anti-proliferative effect

Tested on: THP-1 cells
Experiment: LDH cytotoxicity assay in THP-1 cells
Settings: CPP screen, 15 μM, 30 min pre-treatment, LPS 100 ng/ml
Description: For every assay, separate wells were seeded for the required controls (Spontaneous LDH Release Controls and Maximum LDH Release Control) with the same amount of cells as used for peptide treatments. All supernatants were analysed in triplicate with the average value of technical replicates taken into calculations.
THP-1 cells were pre-treated with increasing concentrations of P7-Arg11 and control peptide Arg11 for 1 h (FIG. 3).

Substance | reduction of LPS-mediated toxicity (LDH assay)
Ac-ITVYASVTLTGRRRRRRR-NH2 [Peptide P7-Arg7, ITVYASVTLTGRRRRRRR] | some decrease
Ac-ITVYASVTLTGRRRRRRRRR-NH2 [Peptide P7-Arg9] | some decrease
Ac-RRRRRRRRRRRGITVYASVTLT-NH2 [Arg11-P7] | some decrease

— patent publication US20230220047A1, “PEPTIDES FOR TREATMENT OF SEPSIS AND CANCER” (NORWEGIAN UNIVERSITY OF SCIENCE AND TECHNOLOGY (NTNU), priority 2020, published 2023)
